Test results: US11530186B2, “Inhibitors for the β-catenin / T-cell factor protein-protein interaction” (H. LEE MOFFITT CANCER CENTER AND RESEARCH INSTITUTE, INC., priority 2018, dated 2022)

Biological target: T1, β-catenin/E-cadherin (Homo sapiens, UniProt P35222)
T1 construct: 150 nM human β-catenin (residues 138-781); 6×histidine (C); made in house; host or cells: E. coli BL21 DE3
T1 sequence (P35222 138-781): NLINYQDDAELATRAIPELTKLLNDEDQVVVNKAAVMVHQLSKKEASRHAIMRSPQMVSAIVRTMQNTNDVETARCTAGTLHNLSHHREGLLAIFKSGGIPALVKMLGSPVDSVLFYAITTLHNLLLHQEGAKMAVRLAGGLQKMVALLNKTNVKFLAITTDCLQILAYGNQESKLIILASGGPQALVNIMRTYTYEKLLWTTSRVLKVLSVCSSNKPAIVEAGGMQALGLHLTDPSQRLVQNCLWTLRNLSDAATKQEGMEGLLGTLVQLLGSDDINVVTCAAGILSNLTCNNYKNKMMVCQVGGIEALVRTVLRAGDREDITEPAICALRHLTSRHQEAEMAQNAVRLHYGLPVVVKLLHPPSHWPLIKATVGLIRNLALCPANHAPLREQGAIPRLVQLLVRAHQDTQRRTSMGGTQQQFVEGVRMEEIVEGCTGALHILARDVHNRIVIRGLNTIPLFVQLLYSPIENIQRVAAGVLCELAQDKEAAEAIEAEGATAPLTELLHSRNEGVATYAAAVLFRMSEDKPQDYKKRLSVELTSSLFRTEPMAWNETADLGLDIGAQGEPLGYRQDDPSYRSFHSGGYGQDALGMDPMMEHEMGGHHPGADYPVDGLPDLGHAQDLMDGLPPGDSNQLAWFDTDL
Test: FP selectivity assay, β-catenin/cadherin assay
Assay type: binding
Protocol: FP Selectivity Assays. Experiments were performed in 96-well Microfluor 2 black plates on a Synergy 2 plate reader (Biotek). The polarization was measured at room temperature with an excitation wavelength at 485 nm and an emission wavelength at 535 nm. The FP experiments were performed in an assay buffer of 25 mM Hepes (pH 7.4), 100 mM NaCl, 0.01% Triton X-100, and 100 μg/ml γ-globulin. The final reaction volume was set to 100 μL. For the β-catenin/Tcf assay, 10 nM human β-catenin (residues 138-781) was incubated with 2.5 nM C-terminally fluorescein-labeled human Tcf4 (residues 7-51) for 30 min at 4° C., and then different concentrations of the compound in assay buffer were added. […] For the β-catenin/cadherin assay, 150 nM human β-catenin (residues 138-781) was incubated with 5 nM C-terminally fluorescent-labeled human E-cadherin (residues 819-873) in assay buffer for 30 min at 4° C. The negative control refers to 5 nM E-cadherin fluorescence tracer and 150 nM β-catenin in assay buffer with no inhibitor presenting. The positive control refers to 5 nM E-cadherin fluorescence tracer in assay buffer. […] The negative control refers to 5 nM APC-R3 fluorescence tracer and 2,000 nM β-catenin in assay buffer without the tested compound. The positive control refers to 5 nM APC-R3 fluorescence tracer in assay buffer. Each assay plate was covered black and gently mixed on an orbital shaker at 4° C. for 2.5 h to reach equilibrium before the polarization values were read. […] The IC50 values were determined by GraphPad Prism 5.0. […] The results were expressed as mean±standard deviation. The Tcf/cahderin selectivity ratio was calculated on the basis of the respective Ki value of the β-catenin/E-cadherin interaction over that of the β-catenin/Tcf4 interaction. The Tcf/APC selectivity ratio was calculated on the basis of the respective Ki value of the β-catenin/APC-R3 interaction over that of the β-catenin/Tcf4 interaction. […]

- Ki (FP selectivity assay, mean ± SD (n = 3)): 26 ± 8 µM
- selectivity for β-catenin/Tcf over β-catenin/cadherin PPI (FP selectivity assays): 28 fold
- Selectivity Tcf/E-cadherin (ratio of Ki β-catenin/E-cadherin over Ki β-catenin/Tcf4): 28
Compound: O=C(O)c1ccc2c(c1)c(CCc1ccc(Cl)cc1)c(CCc1nc3ccccc3s1)n2CCc1nn[nH]n1 [Compound 27, 1-(2-(2H-tetrazol-5-yl)ethyl)-2-(2-(benzo[d]thiazol-2-yl)ethyl)-3-(4-chlorophenethyl)-1H-indole-5-carboxylic acid]
